# According to patent US20240390529A1, “DUAL-MODE PROBE FOR DETECTING HYDROGEN SULFIDE AND USE THEREOF” (KYUNGPOOK NATIONAL UNIVERSITY INDUSTRY-ACADEMIC COOPERATION …, priority 2022, published 2024):
# Tests used:
# [1] = Fluorescence stability and reactivity at various pH; type: physicochemical; settings: pH 5 to 10
# [2] = Selectivity toward competing biological species with and without H2S
# Description: The selectivity of Cu-ATSM-FITC(5) was investigated against a variety of potentially competing biological species in the presence and absence of H2S (FIG. 6D).
# [3] = tested on: human hepatoma cells (HepG2); assay: MTT cytotoxicity analysis, HepG2; type: cell-based
# Experimental: (§1) The cytotoxicity of Cu-ATSM-FITC(5) was evaluated through 3-(4,5-dimethyl-2-thiazolyl)-2,5-diphenyltetrazolium bromide (MTT; sigma-aldrich) analysis. Human cervical cancer cells (HeLa), human hepatoma cells (HepG2), and human embryonic kidney cells (HEK293) were prepared in 96-well plates at a density of 10,000 cells per well. As compared to the control group treated with PBS alone, they were treated with Cu-ATSM-FITC (5) at increasing concentrations of 1, 10, and 25 μM. Afterwards, they were incubated for 1, 4, and 24 hours (37° C., 5% CO2), respectively. For each treatment time, each well was added with 10 μL of MTT (5 mg/mL in PBS) solution and incubated for 3 hours. The supernatant was carefully aspirated, and the purple insoluble formazan crystals in the wells were dissolved using DMSO for 30 minutes. Absorbance was measured at 550 nm using a spectrophotometer (SPECTROstar Nano, BMG Labtech, Ortenberg, Germany). CuS was also performed four times in a similar manner by using HeLa, HEK293, HepG2, and human brain glioblastoma (U87MG) cells.
# H2S in HeLa cells = assay: Fluorescence imaging of exogenous and endogenous H2S in live HeLa cells; type: cell-based, human
# Description: Next, we investigated the usefulness of Cu-ATSM-FITC(5) for monitoring H2S levels in living cells (FIG. 14).
# [4] = tested on: human embryonic kidney cells (HEK293); assay: MTT cytotoxicity analysis, HEK293; type: cell-based
# Experimental: as §1
# [5] = Optical properties (UV-Vis absorbance, fluorescence emission); type: physicochemical; settings: without H2S
# Experimental: The optical properties of the free ligand ATSM-FITC (4) were evaluated. […] When H2S sequestered Cu(II) ions from the copper complex (5) and precipitated CuS, the ATSM-FITC ligand was released and fluorescence was emitted (FIG. 7).
# mouse brain tissues = settings: up to 7 days after injection of high-dose 500 μg; CuS precipitated
# Experimental: Animals were anesthetized by using isoflurane, and injected with 100 μg of Cu-ATSM-FITC(5) in 100 μL of 10% DMSO/PBS, and 500 μg of Cu-ATSM-FITC(5) in 100 μL of 40% DMSO/PBS, respectively, through tail vein injection. The animals were perfused transcardially with saline 1, 3, and 7 days after the injection. The brains were dissected, fixed in 4% paraformaldehyde, and embedded in paraffin to make blocks. Serial coronal sections in paraffin with the thickness of 7 μm were obtained. The sections were stained with H&E by using a staining kit (BBC ClearView, BBC Eosin Y Alcoholic). The stained brain tissues were photographed under a Carl Ziess microscope at 400× magnification.
# [6] = Fluorescence response of probe to NaHS (sensitivity, reaction rate, detection limit)
# Experimental: To confirm the sensitivity, Cu-ATSM-FITC(5) was incubated with a wide range of NaHS concentrations (0-100 μM) at 37° C. and the fluorescence intensity was measured (FIG. 6B). […] When reacted with 50 μM NaHS solution, the fluorescence intensity of Cu-ATSM-FITC(5) reached a plateau within 30 seconds (FIG. 6C). In contrast, the reactivity of Cu-ATSM-FITC(5) toward L-cysteine (1 mM) and glutathione (GSH) (10 mM) was minimal, as compared to H2S, even though their concentrations were at least 20 times higher than H2S. The detection limit of Cu-ATSM-FITC(5) was calculated to be 0.20 μM using the regression equation (FIG. 8). The quantum yield was confirmed to be 0.33 according to the equation, as compared to the fluorescein standard value (FIG. 9).
# [7] = tested on: Human cervical cancer cells (HeLa); assay: MTT cytotoxicity analysis, HeLa; type: cell-based; settings: 1, 10, and 25 μM, 24 hours of incubation
# Experimental: as §1
# [8] = Measurement of quantum yield versus fluorescein standard; type: physicochemical; settings: compared to the fluorescein standard value
# Experimental: The background levels of methanol used in the experiment were measured by using a SpectraMaxi-3 spectraphotometer, and Cu-ATSM-FITC(5) was measured at concentrations of 0.02, 0.04, 0.06, 0.08, and 0.1 μM. A fluorescein standard line graph was obtained according to the concentration and intensity of Cu-ATSM-FITC(5). The quantum yield was calculated according to the following equation: Φ=ΦST (Grad x/Grad ST) (η×2/ηST 2). Here, the subscripts ST and X represent the measured values of the standard and test solutions, respectively. In addition, Φ represents the quantum yield and η represents the refractive index of the solution.
# [9] = Biodistribution in normal BALB/c mice (γ-counter); type: in vivo
# Experimental: BALB/c mice (male, 9 weeks old) were used to investigate the systemic distribution and clearance rate of ^64Cu-ATSM-FITC (6). ^64Cu-ATSM-FITC (6) with a radioactivity of 0.56 to 0.74 MBq in a saline solution (5% DMSO, 200 μL) was injected into mice through the tail vein under anesthesia. […] Blood was drawn, and organs comprising heart, lung, muscle, fat, bone, spleen, kidney, liver, intestine, and brain were harvested, weighed, and analyzed by using a γ-counter (Wallac Wizard 1480, PerkinElmer, France). Radioactivity was calculated as percentage of injected dose per gram (% ID/g).
# The distribution of ^64Cu-ATSM-aniline in the body was confirmed by using the same method as described in Experimental Methods 5 and 7 above.
# [10] = In vitro stability in FBS and PBS (radio-TLC demetalization); type: in vitro ADME; settings: 37° C.
# Experimental: ^64Cu-ATSM-FITC(6) (10 μL, 37 MBq) was first mixed with FBS (500 μL) or PBS (pH 7.4) at the same volume, and the mixture was incubated at 37° C. Demetalization was monitored using radio-TLC (silica, MeOH:EtOAc=5:95) for up to 12 hours.
# Radioactively labeled ^64Cu-ATSM-FITC(6) (10 μL, 37 MBq) was mixed with 100 μL of FBS or PBS at pH 7.4 in the same amount and incubated at 37° C. using a Thermomixer (500 rpm). In addition, demetalization was measured by radio-TLC (silica, MeOH:EtOAC=5:95) every 4 hours for up to 24 hours.
# brain H2S [11] = assay: LPS neuroinflammation model, PET imaging and γ-counter quantification of brain hemispheres; type: in vivo, mice; settings: LPS-treated animals
# Experimental: Mice were mounted in a stereotaxic frame under isoflurane anesthesia. Sterile saline (control) or LPS (5 mg/mL, Sigma-Aldrich, Saint Louis, MO, USA, catalog number: L2630) was injected unilaterally into the right striatum (anterior-posterior [AP], 0.5 mm, medial) of each mouse by using a 28-gauge Hamilton syringe attached to an automatic microinjector. Injection was carried out at a rate of 0.2 μL/min for 10 minutes. After each injection, the needle was left in place for 5 minutes before being slowly retracted.
# Brain inflammation and control models were prepared 2 days prior to the study on PET imaging (n=5 each). ^64Cu-ATSM-FITC(6) (˜18 MBq, 200 μL of 5% DMSO/PBS) was injected into mice, and the mice were scanned for 10 minutes at 10 minutes after the injection. In addition, Sprague Dawley rats were injected with radiolabeled ^64Cu-ATSM-FITC(6) (˜18 MBq, 200 μL of 5% DMSO/PBS) through the tail vein, and the mice were scanned for 20 minutes at 1 hour after the injection. CT images were generated immediately without the use of additional contrast agents. All PET images were reconstructed by using the Mediso Tera-Tomo 3D iterative algorithm, together with corrections for interaction depth, radionuclide decay, detector normalization, decision dead time, and attenuation.
# [12] = Decomplexation of radiolabeled probe by H2S (radio-TLC)
# Experimental: (§2) The ligand ATSM-FITC(4) was radiolabeled with ^64CuCl2 ions in 0.1M ammonium acetate buffer (pH 6.8) at 60° C., with a radiochemical yield of >97% (FIG. 3). Among the various positron-emitting radioisotopes of copper (^60Cu, ^61Cu, ^62Cu, or ^64Cu), Cu-64 has a moderately long half-life (12.7 hours) and a decay mode favorable for PET imaging (17.8% β+ decay). […] The proportion of demetalized ^64CuS in the intact ^64Cu-ATSM-FITC(6) complex may be easily quantified by radio-TLC analysis. The Rf value of ^64Cu-ATSM-FITC(6) was 0.72 on a silica plate with mobile phase (ethyl acetate methanol (95:5)), and ^64CuS remained at the origin of the TLC plate (FIG. 22). As the concentration of H2S increased, the decomplexation percentage of ^64Cu-ATSM-FITC(6) increased proportionally and reached a plateau at 20 μM of H2S (FIG. 15C). […] The lipophilicity of the radiotracer was measured using the general octanol-PBS partitioning method.
# brain H2S [13] = assay: PET/CT imaging in Parkinson's disease rat model; type: in vivo, SD rats; settings: PET/CT 1 hour after injection of about 1 mCi
# Experimental: The Parkinson's disease-induced rat model was prepared by taking 7-week-old SD rats and injecting 6-hydroxydopamine (6-OHDA) into the medial forebrain bundle using a Hamilton syringe after drilling a small 1.5 mm hole in the rat's skull near the parietal region at 8 weeks of age.
# In addition, the uptake pattern was also different between normal rats and the Parkinson's disease rat model (FIG. 23).
# brain H2S [14] = assay: Animal PET/CT brain imaging, normal and AOAA-treated BALB/c mice; type: in vivo; settings: 1 hour after injection
# Experimental: Male BALB/c mice (6 to 9 weeks old) were purchased from Hyochang Bioscience (Daegu, Korea). All mice were housed at 20 to 24° C. together with sufficient water and commercial food under a 12-h day/night cycle. For studies on H2S inhibition, male BALB/c mice were injected intraperitoneally with AOAA ((O-(carboxymethyl) hydroxylamine hemihydrochloride, 10 mg/kg, Sigma-Aldrich (C13408-1G)), 1 hour before administered with ^64Cu-ATSM-FITC(6) into the tail vein.
# Animal PET/CT images were obtained by using a nanoScan PET/CT scanner (PET 82S, Mediso, Budapest, Hungary). Radiolabeled ^64Cu-ATSM-FITC(6) (˜11 MBq, 200 μL of 5% DMSO/PBS) was injected via tail vein into normal and AOAA-treated BALB/c mice (n=4), and the mice were scanned for 20 minutes at 1 hour after the injection. For PET image-based quantification, regions of interest (ROIs) were manually drawn on the whole brain.
# Detection was performed in 1:3 matching smode with four iterations with six subsets. Analysis of the acquired PET/CT images was performed by using the Mediso InterView Fusion software package. The uptake of ^64Cu-ATSM-FITC(6) in each tissue was normalized to the administered radioactive dose and animal body weight and expressed as the average percent injected dose per gram (% ID/g).
# [15] = Lipophilicity, octanol-PBS partitioning; type: physicochemical
# Experimental: as §2
smiles,measurement,setting,value
"CNC([S-])=NN=C(C)C(C)=NN=C([S-])Nc1ccc(-c2c3ccc(=O)cc-3oc3cc(O)ccc23)c(C(=O)O)c1.[Cu+2] [Cu-ATSM-FITC(5), Copper(II) Complex of 2-(6-hydroxy-3-oxo-3H-xanthen-9-yl)-5-((E)-2-((E)-3-(2-(methylcarbamothioyl)hydrazono)butan-2-ylidene)hydrazinecarbothioamido)benzoic Acid]",stability and reactivity over physiological pH range,[1],high stability and reactivity
same,fluorescence intensity with competing species plus NaHS,[2]; NaHS 50 μM added with other biologically abundant species,full fluorescence intensity was observed without interference
same,reactivity (fluorescence signals) with other species,"[2]; biothiols, inorganic sulfur species, reducing agents, nucleophiles, ROS/RNS, absence of H2S",did not show reactivity
same,cytotoxicity,[3],No cytotoxicity was observed
same,detection of endogenous H2S induced by L-cysteine,H2S in HeLa cells; L-cysteine 100 μM,successfully detected the increase in endogenous H2S concentration
same,green fluorescence intensity in HeLa cells on addition of NaHS,H2S in HeLa cells; NaHS 50 and 100 μM,linear rise in green fluorescence intensity
same,fluorescence signal in HeLa cells,"H2S in HeLa cells; probe 25 μM, no added H2S",faint fluorescence signal
same,cytotoxicity,[4],No cytotoxicity was observed
same,fluorescence signal of the complex,[5],did not show a detectable fluorescence signal
same,toxicity in mouse brain tissues (H&E staining),mouse brain tissues,low toxicity
same,time for fluorescence intensity to reach a plateau,[6]; 50 μM NaHS solution,≤ 30 s
same,fluorescence enhancement at 524 nm,"[6]; 100 μM NaHS compared to concentration 0, 37° C.",up to 3500 fold
same,reactivity toward L-cysteine and glutathione (GSH) compared to H2S,"[6]; L-cysteine 1 mM, GSH 10 mM",minimal
same,detection limit,"[6]; calculated using the regression equation, H2S",0.20 µM
same,survival rate of HeLa cells,[7],exceeded 85%
same,quantum yield,[8],0.33
CNC([S-])=NN=C(C)C(C)=NN=C([S-])Nc1ccc(-c2c3ccc(=O)cc-3oc3cc(O)ccc23)c(C(=O)O)c1.[64Cu+2] [^64Cu-ATSM-FITC(6)],total injected activity found in the whole brain,[9],more than 3.3%
same,brain uptake,"[9]; at 5 minutes, maintained up to 2 hours after injection",greater than 9 % ID/g
same,"uptake in the heart, lungs, and kidneys",[9]; initially high,gradually decreased over time
same,stability in FBS and PBS,[10],high stability
same,degradation,"[10]; FBS and PBS, up to 24 hours after incubation",Less than 10%
same,increase of radioactivity at the injection site (right hemisphere) versus left hemisphere,brain H2S [11],31%
same,reaction with H2S,[12]; forms insoluble ^64CuS precipitate,reacted immediately
same,H2S concentration at which decomplexation percentage reached a plateau,[12]; radio-TLC,20 µM
same,uptake in brain regions in Parkinson's disease rat model versus normal rats,brain H2S [13],significantly lower
same,brain uptake in PET imaging,brain H2S [14]; AOAA-treated mice (10 mg/kg i.p.),11.4±2.0 % ID/g
same,brain uptake in PET imaging,brain H2S [14]; control mice,15.0±1.8 % ID/g
same,log D7.4,[15],1.70±0.05
